For 1 molecule, MIC results are on record in patent US6784204B2, “Antibiotic cytosporacin” (Wyeth Holdings Corporation, Five Giralda Farms, priority 2002, dated 2004).

Converted amounts (≈) assume the structure as drawn.

Common to all, as to experiment: MIC by broth dilution method
Common to all, as to assay type: cell-based
On the technique in general: In broth dilution the organism is exposed to a series of concentrations in liquid medium.

Assay [1] has as its system Bacillus subtilis 327 (BGSC-1A1). Conditions: 18 hours at 35° C.
For assay [2], the system named is Enterococcus faecium 436 (ID3151). The note with it: 18 hours at 35° C. How it is done: (§1) The minimum inhibitory concentration (MIC), the lowest concentration of the antibiotic which inhibits growth of the test organism, is determined by the broth dilution method using Muller-Hinton II […] (Baltimore Biological Laboratories) following the recommendations of the National Committee for Clinical Laboratory Standards [Methods for dilution antimicrobial susceptibility tests for bacteria that grow aerobically. Approved standard M7-A2. National Committee for Clinical Laboratory Standards, Villanova, Pa].
(§2) An inoculum level of 5×10^5 CFU/ml, and a range of antibiotic concentrations (256-1.0 μg/ml) is used. The MIC is determined after the microtiter plates are incubated for 18 hours at 35° C. in an ambient air incubator. The test organisms comprise a spectrum of Gram-positive bacteria comprised of Staphylococcus sp., Enterococcus sp., Gram-negative bacterium Escherichia coli, and the yeast Candida albicans. These organisms include recent clinical isolates that are resistant to piperacillin and vancomycin.

The subject of assay [3] is Candida albicans 54 (CA300). Conditions: 18 hours at 35° C. How it is done: as §1, §2
The subject of assay [4] is Enterococcus faecium 379 (NC12204, vancomycin-resistant). The note with it: 18 hours at 35° C. Here is the method:
as §1, §2

Assay [5] concerns Escherichia coli 389 (GC4560 imp). Conditions: 18 h. Here is the method: as §1, §2
Assay [6] has as its system Staphylococcus aureus 310 (SSC8224, methicillin-resistant). The note with it: 18 hours at 35° C. Here is the method:
as §1, §2

For assay [7], the system named is Escherichia coli 442 (GC4559). Conditions: 18 hours at 35° C. How it is done: as §1, §2
For assay [8], the system named is Staphylococcus aureus 375 (ATCC3538p). The note with it: 18 hours at 35° C. How it is done:
as §1, §2

Regarding `C=C1OC(=O)c2c(cc3c(C4=C5C=C(O)C(=O)C(O)=C5C(CCCCCCC)OC4=O)c(O)cc(O)c3c2O)C1O` (centres unmarked) [Cytosporacin], the minimal inhibitory concentration (MIC) in assay [1] was 32 µg/mL (≈ 56.7 µM); in assay [2], 16 µg/mL (≈ 28.3 µM); in assay [3], over 256 µg/mL; in assay [4], 64 µg/mL (≈ 113 µM); in assay [5], 64 µg/mL (≈ 113 µM); in assay [6], 32 µg/mL (≈ 56.7 µM). In addition, the MIC was found to be 256 µg/mL (≈ 453 µM) in assay [7] and 32 µg/mL (≈ 56.7 µM) in assay [8].

The term MIC denotes the lowest concentration found to suppress growth. Low readings indicate inhibition by little substance, high ones a need for much substance.
